According to PubChem BioAssay (NCI):
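Values below derive from 48-hour exposures of cells grown in 96-well plates, with endpoints linearly interpolated between the two concentrations bracketing the appropriate inhibition level. The concentration for full growth arrest is given as TGI.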 Where a SMILES comes first, the peptide text is derived from it. The star is where a group is joined. ONb = O=[N+]([O-])c1ccc(CO*)cc1; Boc = CC(C)(C)OC(=O)*

Assays:
Assay in all cases: NCI tumour cell line growth inhibition, 48 h
NCI-H460 lung = system: NCI-H460 lung
HCT-116 colon = system: HCT-116 colon
IGROV1 ovarian = system: IGROV1 ovarian
M14 melanoma = system: M14 melanoma
SNB-19 CNS = system: SNB-19 CNS
SN12C renal = system: SN12C renal
T-47D breast = system: T-47D breast
OVCAR-8 ovarian = system: OVCAR-8 ovarian
NCI-H23 lung = system: NCI-H23 lung
MOLT-4 leukemia = system: MOLT-4 leukemia
SF-268 CNS = system: SF-268 CNS
LOX IMVI melanoma = system: LOX IMVI melanoma
CCRF-CEM leukemia = system: CCRF-CEM leukemia
HCC-2998 colon = system: HCC-2998 colon
MDA-MB-231 breast = system: MDA-MB-231 breast
EKVX NSCLC = system: EKVX NSCLC
UO-31 renal = system: UO-31 renal
SR leukemia = system: SR leukemia
SW-620 colon = system: SW-620 colon
TK-10 renal = system: TK-10 renal
UACC-62 melanoma = system: UACC-62 melanoma
UACC-257 melanoma = system: UACC-257 melanoma
OVCAR-4 ovarian = system: OVCAR-4 ovarian
DU-145 prostate = system: DU-145 prostate
PC-3 prostate = system: PC-3 prostate
SK-MEL-28 melanoma = system: SK-MEL-28 melanoma
HL-60(TB) leukemia = system: HL-60(TB) leukemia
SK-MEL-2 melanoma = system: SK-MEL-2 melanoma
COLO 205 colon = system: COLO 205 colon
CAKI-1 renal = system: CAKI-1 renal
HT29 colon = system: HT29 colon
HOP-92 NSCLC = system: HOP-92 NSCLC
HOP-62 NSCLC = system: HOP-62 NSCLC
786-0 renal = system: 786-0 renal
MDA-N = system: MDA-N
A498 renal = system: A498 renal
OVCAR-5 ovarian = system: OVCAR-5 ovarian
SF-539 CNS = system: SF-539 CNS
MALME-3M melanoma = system: MALME-3M melanoma
OVCAR-3 ovarian = system: OVCAR-3 ovarian
SF-295 CNS = system: SF-295 CNS
K-562 leukemia = system: K-562 leukemia
U251 CNS = system: U251 CNS
HCT-15 colon = system: HCT-15 colon
RPMI-8226 leukemia = system: RPMI-8226 leukemia
ACHN renal = system: ACHN renal
SNB-75 CNS = system: SNB-75 CNS
NCI/ADR-RES ovarian = system: NCI/ADR-RES ovarian
MCF7 breast = system: MCF7 breast
MDA-MB-435 = system: MDA-MB-435
NCI-H226 lung = system: NCI-H226 lung
BT-549 breast = system: BT-549 breast
SK-OV-3 ovarian = system: SK-OV-3 ovarian
KM12 colon = system: KM12 colon
A549 NSCLC = system: A549 NSCLC
SK-MEL-5 melanoma = system: SK-MEL-5 melanoma
NCI-H522 lung = system: NCI-H522 lung

CC(C)CC(NC(=O)OC(C)(C)C)C(=O)NC(CCC(=O)OCc1ccc([N+](=O)[O-])cc1)C(=O)OCc1ccc([N+](=O)[O-])cc1 (stereo not drawn) (Boc-Leu-Glu(ONb)-ONb; configuration not given here)
TGI (NCI-H460 lung): 56.1 µM | TGI (HCT-116 colon): > 100 µM | TGI (IGROV1 ovarian): 47.6 µM | TGI (M14 melanoma): 57.8 µM | TGI (SNB-19 CNS): > 100 µM | TGI (SN12C renal): > 100 µM | TGI (T-47D breast): > 100 µM | TGI (OVCAR-8 ovarian): > 100 µM | TGI (NCI-H23 lung): 59.4 µM | TGI (MOLT-4 leukemia): 39.8 µM | TGI (SF-268 CNS): 39.3 µM | TGI (LOX IMVI melanoma): 63.8 µM | TGI (CCRF-CEM leukemia): 57.5 µM | TGI (HCC-2998 colon): 44.6 µM | TGI (MDA-MB-231 breast): > 100 µM | TGI (EKVX NSCLC): > 100 µM | TGI (UO-31 renal): > 100 µM | TGI (SR leukemia): 37.1 µM | TGI (SW-620 colon): > 100 µM | TGI (TK-10 renal): > 100 µM | TGI (UACC-62 melanoma): 99.3 µM | TGI (UACC-257 melanoma): > 100 µM | TGI (OVCAR-4 ovarian): > 100 µM | TGI (DU-145 prostate): 44.9 µM | TGI (PC-3 prostate): > 100 µM | TGI (SK-MEL-28 melanoma): 30.9 µM | TGI (HL-60(TB) leukemia): 19.1 µM | TGI (SK-MEL-2 melanoma): 78.3 µM | TGI (COLO 205 colon): > 100 µM | TGI (CAKI-1 renal): > 100 µM | TGI (HT29 colon): 94.7 µM | TGI (HOP-92 NSCLC): > 100 µM | TGI (HOP-62 NSCLC): > 100 µM | TGI (786-0 renal): 71.5 µM | TGI (MDA-N): > 100 µM | TGI (A498 renal): > 100 µM | TGI (OVCAR-5 ovarian): > 100 µM | TGI (SF-539 CNS): 37.2 µM | TGI (MALME-3M melanoma): > 100 µM | TGI (OVCAR-3 ovarian): 77.4 µM | TGI (SF-295 CNS): > 100 µM | TGI (K-562 leukemia): 39.4 µM | TGI (U251 CNS): > 100 µM | TGI (HCT-15 colon): > 100 µM | TGI (RPMI-8226 leukemia): 88.4 µM | TGI (ACHN renal): > 100 µM | TGI (SNB-75 CNS): 31.9 µM | TGI (NCI/ADR-RES ovarian): > 100 µM

CCCCNC(=S)Nc1nc(C(=O)NNC(=S)NC2CCCCC2)cs1
TGI (HCT-116 colon): > 100 µM | TGI (IGROV1 ovarian): > 100 µM | TGI (M14 melanoma): > 100 µM | TGI (MCF7 breast): > 100 µM | TGI (MDA-MB-435): > 100 µM | TGI (SN12C renal): > 100 µM | TGI (T-47D breast): > 100 µM | TGI (OVCAR-8 ovarian): > 100 µM | TGI (NCI-H23 lung): > 100 µM | TGI (SF-268 CNS): > 100 µM | TGI (LOX IMVI melanoma): > 100 µM | TGI (CCRF-CEM leukemia): > 100 µM | TGI (HCC-2998 colon): > 100 µM | TGI (MDA-MB-231 breast): > 100 µM | TGI (EKVX NSCLC): > 100 µM | TGI (NCI-H226 lung): > 100 µM | TGI (UO-31 renal): > 100 µM | TGI (SR leukemia): 35.4 µM | TGI (SW-620 colon): > 100 µM | TGI (TK-10 renal): > 100 µM | TGI (UACC-62 melanoma): > 100 µM | TGI (UACC-257 melanoma): > 100 µM | TGI (OVCAR-4 ovarian): > 100 µM | TGI (DU-145 prostate): > 100 µM | TGI (BT-549 breast): > 100 µM | TGI (PC-3 prostate): > 100 µM | TGI (SK-MEL-2 melanoma): > 100 µM | TGI (COLO 205 colon): > 100 µM | TGI (SK-OV-3 ovarian): > 100 µM | TGI (CAKI-1 renal): > 100 µM | TGI (HT29 colon): > 100 µM | TGI (HOP-92 NSCLC): > 100 µM | TGI (KM12 colon): > 100 µM | TGI (HOP-62 NSCLC): > 100 µM | TGI (786-0 renal): > 100 µM | TGI (MDA-N): > 100 µM | TGI (A549 NSCLC): > 100 µM | TGI (A498 renal): > 100 µM | TGI (OVCAR-5 ovarian): > 100 µM | TGI (SF-539 CNS): > 100 µM | TGI (SK-MEL-5 melanoma): > 100 µM | TGI (MALME-3M melanoma): > 100 µM | TGI (OVCAR-3 ovarian): > 100 µM | TGI (SF-295 CNS): > 100 µM | TGI (K-562 leukemia): > 100 µM | TGI (U251 CNS): > 100 µM | TGI (HCT-15 colon): > 100 µM | TGI (RPMI-8226 leukemia): > 100 µM | TGI (ACHN renal): > 100 µM | TGI (NCI-H522 lung): > 100 µM | TGI (NCI/ADR-RES ovarian): > 100 µM
